Test results: ChEMBL document CHEMBL2010767, “Agonists for the Chemokine Receptor CXCR4” (ACS Med Chem Lett, 2011)
Active and inactive are the calls of the source. No cut-off for these calls is given here.

Key:
[1] = target: T1, C-X-C chemokine receptor type 4 (Homo sapiens, UniProt P61073); test: Displacement of [125I]-SDF-1alpha from human CXCR4 receptor expressed in HEK293 cells after 1 hr by gamma counting; format: cell-based
[2] = target: T1, C-X-C chemokine receptor type 4; test: Agonist activity at CXCR4 receptor in human REH cells assessed as induction of chemotactic migration at 1 uM after 3 hrs; format: functional, cell-based
[3] = target: T1, C-X-C chemokine receptor type 4; test: Antagonist activity at CXCR4 receptor in human REH cells assessed as inhibition of SDF-1alpha-induced chemotactic migration after 3 hrs; format: functional, cell-based
[4] = target: T1, C-X-C chemokine receptor type 4; test: Agonist activity at CXCR4 receptor in human REH cells assessed as induction of chemotactic migration at 10 to 100 nM after 3 hrs; format: functional, cell-based

T1 sequence (P61073 whole entry): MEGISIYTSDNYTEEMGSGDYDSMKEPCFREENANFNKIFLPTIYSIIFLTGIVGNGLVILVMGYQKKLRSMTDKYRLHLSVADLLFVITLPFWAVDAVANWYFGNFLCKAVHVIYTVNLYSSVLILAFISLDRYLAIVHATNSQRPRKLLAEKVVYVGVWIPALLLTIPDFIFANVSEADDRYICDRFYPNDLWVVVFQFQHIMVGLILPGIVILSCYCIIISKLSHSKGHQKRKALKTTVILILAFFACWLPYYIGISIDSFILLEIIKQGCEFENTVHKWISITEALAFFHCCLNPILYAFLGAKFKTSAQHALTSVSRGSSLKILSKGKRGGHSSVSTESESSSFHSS

Compound | IC50 ([1]; hek293) | Activity [2] | IC50 [1] | Activity [3] | Activity [4]
CC(C)C[C@H](NC(=O)[C@H](CO)NC(=O)[C@@H](NC(=O)[C@@H]1CCCN1C(=O)[C@@H](N)CCCCN)C(C)C)C(=O)N[C@@H](CO)C(=O)N[C@@H](Cc1ccc(O)cc1)C(=O)NCCCC[C@@H](NC(=O)[C@@H]1CSSC[C@H](NC(=O)[C@H](Cc2ccc3ccccc3c2)NC(=O)[C@H](CCCNC(=N)N)NC(=O)[C@@H](N)CCCNC(=N)N)C(=O)N[C@@H](Cc2ccc(O)cc2)C(=O)N[C@@H](CCCNC(=N)N)C(=O)N[C@@H](CCCCN)C(=O)N[C@H](CCCCN)C(=O)N2CCC[C@H]2C(=O)N[C@@H](Cc2ccc(O)cc2)C(=O)N[C@@H](CCCNC(=N)N)C(=O)N[C@@H](CCCNC(N)=O)C(=O)C1)C(=O)O | 170 nM | Active |  |  | 
CC(C)C[C@H](NC(=O)[C@H](CO)NC(=O)[C@@H](NC(=O)[C@@H]1CCCN1C(=O)[C@@H](N)CCCCN)C(C)C)C(=O)N[C@@H](CO)C(=O)N[C@@H](Cc1ccc(O)cc1)C(=O)NCCCC[C@@H]1NC(=O)[C@H](CCCNC(=N)N)NC(=O)[C@H](Cc2ccc(O)cc2)NC(=O)[C@@H]2CCCN2C(=O)[C@@H](CCCCN)NC(=O)[C@H](CCCCN)NC(=O)[C@H](CCCNC(=N)N)NC(=O)[C@H](Cc2ccc(O)cc2)NC(=O)[C@@H](NC(=O)[C@H](Cc2ccc3ccccc3c2)NC(=O)[C@H](CCCNC(=N)N)NC(=O)[C@@H](N)CCCNC(=N)N)CSSC[C@@H](C(=O)N[C@@H](CCCNC(=N)N)C(=O)O)CC1=O |  |  | 2.22 nM | Active | 
CC(C)C[C@H](NC(=O)[C@H](CO)NC(=O)[C@@H](NC(=O)[C@@H]1CCCN1C(=O)[C@@H](N)CCCCN)C(C)C)C(=O)N[C@@H](CO)C(=O)N[C@@H](Cc1ccc(O)cc1)C(=O)N[C@@H](CCCNC(=N)N)C(=O)N[C@@H](CO)C(=O)N1CCC[C@H]1C(=O)NCCCC[C@H](NC(=O)[C@@H]1CSSC[C@H](NC(=O)[C@H](Cc2ccc3ccccc3c2)NC(=O)[C@H](CCCNC(=N)N)NC(=O)[C@@H](N)CCCNC(=N)N)C(=O)N[C@@H](Cc2ccc(O)cc2)C(=O)N[C@@H](CCCNC(=N)N)C(=O)N[C@@H](CCCCN)C(=O)N[C@H](CCCCN)C(=O)N2CCC[C@H]2C(=O)N[C@@H](Cc2ccc(O)cc2)C(=O)N[C@@H](CCCNC(=N)N)C(=O)N[C@@H](CCCNC(=N)N)C(=O)C1)C(=O)O |  |  | 9.57 nM |  | Active
